Laboratory results published in patent US8637496B2, “Compounds having a monogalactosyldiacylglycerol synthase inhibitory activity as herbicide or algaecide, herbicide and algaecide compositions” (Commissariat a l'Energie Atomique, priority 2007, dated 2014).
Structures can show the parent of a compound that is named as a salt.

Biological target: T1, MGDG synthase in isolated spinach chloroplast envelope membranes (Spinacia oleracea, UniProt Q9SM44)
T1 construct: envelope membranes purified from the lysate by sucrose centrifugation gradient; from tissue; host or cells: envelope membranes of chloroplasts from spinach leaves
T1 sequence (Q9SM44 99-522): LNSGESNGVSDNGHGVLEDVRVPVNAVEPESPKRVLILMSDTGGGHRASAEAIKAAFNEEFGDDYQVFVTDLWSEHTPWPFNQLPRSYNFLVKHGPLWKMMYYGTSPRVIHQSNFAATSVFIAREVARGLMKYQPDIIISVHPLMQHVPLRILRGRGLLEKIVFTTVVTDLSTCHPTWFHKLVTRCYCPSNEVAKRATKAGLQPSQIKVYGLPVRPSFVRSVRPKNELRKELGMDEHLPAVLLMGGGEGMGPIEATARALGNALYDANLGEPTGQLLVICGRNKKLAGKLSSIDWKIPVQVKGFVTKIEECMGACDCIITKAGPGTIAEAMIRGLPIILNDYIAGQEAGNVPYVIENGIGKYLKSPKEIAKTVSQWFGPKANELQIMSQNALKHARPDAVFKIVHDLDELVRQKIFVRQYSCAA
Test: MGDG synthase activity in envelope membrane fractions isolated from spinach chloroplasts
Type: biochemical
Details: Table 1, obtained in the same manner as FIG. 4; read-out: Inhibitory effect on MGDG synthesis in isolated spinach chloroplast envelope membranes
Text: All the operations have been carried out as described in the article by Maréchal, E. et al., J. Biol. Chem., 1995, 270, 5714-5722. Crude chloroplasts were obtained from 3-4 kg of spinach leaves and purified by isopycnic centrifugation using Percoll gradients. Purified intact chloroplasts have then been lysed in hypotonic medium and envelope membranes purified from the lysate by sucrose centrifugation gradient as described in the article by Douce, R. and Joyard, J., (1982) in Methods in Chloroplast Molecular Biology (Edelman, M., Hallick R and Chua N H eds), pp 239-256, Elsevier Science Publishers B.V. Amsterdam.
MGDG synthase activity was assayed as described in the article by Maréchal et al. (1995).

Row | SMILES | IC50
1 | COc1ccc(CN(CCCOC(=O)N2CCC(n3c(=O)[nH]c4ccccc43)CC2)Cc2ccccc2)cc1 [Compound 42, 3-(benzyl(4-methoxybenzyl)amino)propyl 4-(2-oxo-2,3-dihydro-1H-benzo[d]imidazol-1-yl)piperidine-1-carboxylate hydrochloride] | 50 µM
2 | O=C(OC[C@@H](Cc1ccccc1)N(Cc1ccccc1)Cc1ccccc1)N1CCC(n2c(=O)[nH]c3ccccc32)CC1 [Compound 43, (R)-2-(dibenzylamino)-3-phenylpropyl 4-(1,2-dihydro-2-oxobenzo[d]imidazol-3-yl)piperidine-1-carboxylate] | 6 µM
3 | O=C(OCCN(Cc1ccccc1)Cc1ccncc1)N1CCC(n2c(=O)[nH]c3ccccc32)CC1 [Compound 44, 2-(benzyl(pyridin-4-ylmethyl)amino)ethyl 4-(2-oxo-2,3-dihydro-1H-benzo[d]imidazol-1-yl)piperidine-1-carboxylate] | 45 µM
4 | O=C(OCCN(Cc1ccccc1)Cc1ccc(F)cc1)N1CCC(n2c(=O)[nH]c3ccccc32)CC1 [Compound 45, 2-(benzyl(4-fluorobenzyl)amino)ethyl 4-(2-oxo-2,3-dihydro-1H-benzo[d]imidazol-1-yl)piperidine-1-carboxylate hydrochloride] | 5 µM
5 | O=C(OCCN(CCCc1ccccc1)Cc1ccccc1)N1CCC(n2c(=O)[nH]c3ccccc32)CC1 [Compound 46, 2-(benzyl(3-phenylpropyl)amino)ethyl 4-(2-oxo-2,3-dihydro-1H-benzo[d]imidazol-1-yl)piperidine-1-carboxylate hydrochloride] | 15 µM
6 | COc1ccc(CN(CCOC(=O)N2CCC(n3c(=O)[nH]c4ccccc43)CC2)Cc2ccccc2)cc1 [Compound 47, 2-(benzyl(4-methoxybenzyl)amino)ethyl 4-(2-oxo-2,3-dihydro-1H-benzo[d]imidazol-1-yl)piperidine-1-carboxylate hydrochloride] | 15 µM
7 | COc1cccc(CN(CCOC(=O)N2CCC(n3c(=O)[nH]c4ccccc43)CC2)Cc2ccccc2)c1 [Compound 48, 2-(benzyl(3-methoxybenzyl)amino)ethyl 4-(2-oxo-2,3-dihydro-1H-benzo[d]imidazol-1-yl)piperidine-1-carboxylate hydrochloride] | 15 µM
8 | O=C(OCCN(Cc1ccccc1)Cc1cccc(Oc2ccccc2)c1)N1CCC(n2c(=O)[nH]c3ccccc32)CC1 [Compound 49, 2-(benzyl(3-phenoxybenzyl)amino)ethyl 4-(2-oxo-2,3-dihydro-1H-benzo[d]imidazol-1-yl)piperidine-1-carboxylate hydrochloride] | 8 µM
9 | O=C(OCCN(Cc1ccccc1)Cc1cccc(Cl)c1)N1CCC(n2c(=O)[nH]c3ccccc32)CC1 [Compound 50, 2-(benzyl(3-chlorobenzyl)amino)ethyl 4-(2-oxo-2,3-dihydro-1H-benzo[d]imidazol-1-yl)piperidine-1-carboxylate hydrochloride] | 8 µM
10 | C[C@@H](COC(=O)N1CCC(n2c(=O)[nH]c3ccccc32)CC1)N(Cc1ccccc1)Cc1ccc(F)cc1 [Compound 51, (S)-2-(benzyl(4-fluorobenzyl)amino)propyl 4-(2-oxo-2,3-dihydro-1H-benzo[d]imidazol-1-yl)piperidine-1-carboxylate hydrochloride] | 40 µM
11 | C[C@@H](COC(=O)N1CCC(n2c(=O)[nH]c3ccccc32)CC1)N(CCCc1ccccc1)Cc1ccccc1 [Compound 52, (S)-2-(benzyl(3-phenylpropyl)amino)propyl 4-(2-oxo-2,3-dihydro-1H-benzo[d]imidazol-1-yl)piperidine-1-carboxylate hydrochloride] | 60 µM
12 | C[C@@H](COC(=O)N1CCC(n2c(=O)[nH]c3ccccc32)CC1)N(Cc1ccccc1)Cc1ccnc2ccccc12 [Compound 53, (S)-2-(benzyl(quinolin-4-ylmethyl)amino)propyl 4-(2-oxo-2,3-dihydro-1H-benzo[d]imidazol-1-yl)piperidine-1-carboxylate hydrochloride] | 60 µM
